The values below come from publication PMC7248394 (Frontiers in Chemistry, 2020).

Data set [1] concerns the target T1, IN1−288 F185K/C250S (HIV-1 integrase) (Human immunodeficiency virus type 1 group M subtype B, UniProt P12497, C1427S/F1332K).
T1 construct: we first expressed and purified IN1−288 F185K/C250S as previously described; made in house
Description: Fluorescence anisotropy binding of fluorescein-labeled IN181−188 peptides to IN. Particulars: for Hill coefficient (n): fluorescence anisotropy, IN titrated into 100 nM fluorescein-labeled peptide, 10°C, ionic strength 1 M (NaCl), fit to Hill equation. On the procedure: To test the activity of the cyclic peptide-peptoid hybrids, we first expressed and purified IN1−288 F185K/C250S as previously described (Gabizon et al., [2013]). The double mutant protein was used since it has similar activity as the wild-type but higher solubility (Jenkins et al., [1996]). […] The Hill coefficient for all the cyclic peptides was approximately 4, indicating cooperative binding of the peptides to tetrameric IN.
IN was titrated into a solution of 100 nM fluorescein labeled (Fl) IN181−188 cyclic peptides and into linear IN181−188, which served as a control. Anisotropy measurements were performed generally as described (Friedler et al., [2002]) at 10°C with ionic strength of 1 M (adjusted by NaCl) and the binding curves were fit to the Hill equation (Figure 8, Table 1).

Another data set deals with trypsin. Description: 7 μL of 8 μM trypsin added to peptide in 360 μL of HEPES 20 mM pH = 7.5. Particulars: 37 °C, up to about 30 h.

Entries after “also recorded” stand apart in the source; their conditions may differ. Residues, ends and D or L forms follow the SMILES beside them. *: point of attachment. 5FAM = O=C1OC2(c3ccc(O)cc3Oc3cc(O)ccc32)c2ccc(C(=O)*)cc21

As for `CC[C@H](C)[C@H](NC(=O)[C@H](Cc1ccccc1)NC(=O)CNC(=O)[C@H](Cc1c[nH]c2ccccc12)NC(=O)c1ccc2c(c1)C(=O)OC21c2ccc(O)cc2Oc2cc(O)ccc21)C(=O)N[C@@H](Cc1c[nH]cn1)C(=O)N[C@@H](CC(N)=O)C(=O)N[C@@H](Cc1ccccc1)C(=O)N[C@@H](CCCCN)C(=O)N[C@@H](CCCNC(=N)N)C(=O)N[C@@H](CCCCN)C(=O)NCC(N)=O` [Fl-WT IN181−188, reference compound] (5FAM-WGFIHNFKRKG-NH2; N-terminus assumed), in data set [1], binding was characterised by a dissociation constant (Kd) of 7.6 ± 0.2 µM and the “Hill coefficient (n)” value is on record as 3.6 ± 0.4.
“H2N-W-G(N-propargyl)-F-I-H-N-F-K-R-K-G(N-(CH2)3-N3)-NH2”: the fragment found result with trypsin is listed as “G(N-propargyl)FIHNFKR, major; also recorded: G(N-propargyl)FIHNFK”.
Take `CC[C@H](C)[C@@H]1NC(=O)[C@H](Cc2ccccc2)NC(=O)CN(C(=O)[C@H](Cc2c[nH]c3ccccc23)NC(=O)c2ccc3c(c2)C(=O)OC32c3ccc(O)cc3Oc3cc(O)ccc32)Cc2cn(nn2)CCN(CC(N)=O)C(=O)[C@H](CCCCN)NC(=O)[C@H](CCCNC(=N)N)NC(=O)[C@H](CCCCN)NC(=O)[C@H](Cc2ccccc2)NC(=O)[C@H](CC(N)=O)NC(=O)[C@H](Cc2c[nH]cn2)NC1=O` [Fl-C-4]: in data set [1], binding was characterised by a dissociation constant (Kd) of 7 ± 0.2 µM and the “Hill coefficient (n)” value was 2.5 ± 0.2.
The like results for `CC[C@H](C)[C@@H]1NC(=O)[C@H](Cc2ccccc2)NC(=O)CN(C(=O)[C@H](Cc2c[nH]c3ccccc23)NC(=O)c2ccc3c(c2)C(=O)OC32c3ccc(O)cc3Oc3cc(O)ccc32)CCCn2cc(nn2)CN(CC(N)=O)C(=O)[C@H](CCCCN)NC(=O)[C@H](CCCNC(=N)N)NC(=O)[C@H](CCCCN)NC(=O)[C@H](Cc2ccccc2)NC(=O)[C@H](CC(N)=O)NC(=O)[C@H](Cc2c[nH]cn2)NC1=O` [Fl-C-1] were, in that order, 8.1 ± 0.2 µM and 3.8 ± 0.4.
Regarding `CC[C@H](C)[C@@H]1NC(=O)[C@H](Cc2ccccc2)NC(=O)CN(C(=O)[C@H](Cc2c[nH]c3ccccc23)NC(=O)c2ccc3c(c2)C(=O)OC32c3ccc(O)cc3Oc3cc(O)ccc32)Cc2cn(nn2)CCCN(CC(N)=O)C(=O)[C@H](CCCCN)NC(=O)[C@H](CCCNC(=N)N)NC(=O)[C@H](CCCCN)NC(=O)[C@H](Cc2ccccc2)NC(=O)[C@H](CC(N)=O)NC(=O)[C@H](Cc2c[nH]cn2)NC1=O` [Fl-C-2], in data set [1], the Kd (commonly a measure of binding affinity in units of concentration) amounted to 9 ± 0.2 µM and the “Hill coefficient (n)” value came out at 3.8 ± 0.3.
Regarding `CC[C@H](C)[C@@H]1NC(=O)[C@H](Cc2ccccc2)NC(=O)CN(C(=O)[C@H](Cc2c[nH]c3ccccc23)NC(=O)c2ccc3c(c2)C(=O)OC32c3ccc(O)cc3Oc3cc(O)ccc32)CCn2cc(nn2)CN(CC(N)=O)C(=O)[C@H](CCCCN)NC(=O)[C@H](CCCNC(=N)N)NC(=O)[C@H](CCCCN)NC(=O)[C@H](Cc2ccccc2)NC(=O)[C@H](CC(N)=O)NC(=O)[C@H](Cc2c[nH]cn2)NC1=O` [Fl-C-3], in data set [1], the dissociation constant (Kd) amounted to 7.7 ± 0.5 µM and the “Hill coefficient (n)” value is on record as 2.8 ± 0.5.
In the case of “H2N-W-G(N-alkyl)-F-I-H-N-F-K-R-K-G(N-alkyl)-NH2, the two N-alkyl groups joined by a triazole bridge (n=3, R=H)”, in the data set with trypsin, the fragment found result is “digested C-2 (C-2 + 18 Da, addition of water)”.
